Assays:
[1] = molecular target: T1, GLYT1 subtype of the glycine transporter (Rattus norvegicus, UniProt P28572); assay: [3H]-glycine uptake assay in C6 glioma cells (action of inhibiting glycine transporter); type: cell-based; settings: 20 min at 37° C., read-out: GLYT-inhibiting activity IC50
T1 construct: C6 glioma cell expressing GLYT1 subtype of the glycine transporter; host or cells: C6 glioma cells
T1 sequence (P28572 1-638): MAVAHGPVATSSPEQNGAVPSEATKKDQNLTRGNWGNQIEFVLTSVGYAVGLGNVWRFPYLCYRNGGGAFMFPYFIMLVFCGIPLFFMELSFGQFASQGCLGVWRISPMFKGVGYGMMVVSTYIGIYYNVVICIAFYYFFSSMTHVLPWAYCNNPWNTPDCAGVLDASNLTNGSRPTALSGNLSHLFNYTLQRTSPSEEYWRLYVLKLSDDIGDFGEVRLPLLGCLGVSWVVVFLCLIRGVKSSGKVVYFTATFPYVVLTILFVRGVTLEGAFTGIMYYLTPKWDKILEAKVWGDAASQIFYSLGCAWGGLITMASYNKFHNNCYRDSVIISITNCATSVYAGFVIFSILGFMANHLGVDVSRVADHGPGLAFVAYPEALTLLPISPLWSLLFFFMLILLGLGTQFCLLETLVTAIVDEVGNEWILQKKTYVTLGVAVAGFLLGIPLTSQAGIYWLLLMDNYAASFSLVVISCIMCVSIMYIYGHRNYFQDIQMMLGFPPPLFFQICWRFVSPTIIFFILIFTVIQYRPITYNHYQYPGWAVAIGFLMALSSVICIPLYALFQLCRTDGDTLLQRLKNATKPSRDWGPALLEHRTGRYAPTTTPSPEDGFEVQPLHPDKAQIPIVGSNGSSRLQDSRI
Procedure: 1. Action of Inhibiting Glycine Transporter
C6 glioma cell (American Type Culture Collection) was cultured in DMEM containing 10% fetal bovine serum, 100 units/ml penicillin G and 0.1 mg/ml streptomycin sulfate in a CO2 incubator under conditions of 5% CO2 and 37° C.
[^3H]-glycine uptake was performed by the method of Gomeza, et al.
C6 glioma cells were plated out at a concentration of 2×10^4 cells/well in a 96-well plate (Culturplate, Packard Co.), for culturing for 2 days. Subsequently, [^3H]-glycine uptake was tested. The cell was rinsed once in a buffer (150 mM NaCl, 5 mM KCl, 1 mM CaCl2, 1 mM MgCl2, 10 mM glucose, 5 mM L-alanine, 10 mM Hepes-Na, pH 7.4), followed by subsequent addition of the buffer, for incubation at 37° C. for 10 minutes.
After incubation, the buffer was exchanged to a reaction buffer including [^3H]-glycine (about 0.2 μM, 41 Ci/mmol, New England Nuclear)and a compound to be assessed, for incubation at 37° C. for another 20 minutes. After 20-min reaction, the reaction mixture was rinsed in ice-cold PBS (phosphate buffered saline). The cell was dissolved in 0.1N NaOH solution, to assay the radioactivity incorporated with a liquid scintillation counter. The specific incorporation was defined as a portion substituted with 3 mM sarcosine in the total incorporation. The test compound was assessed by determining the incorporation-inhibiting ratio of the specific incorporation.

Compound	IC50 [1]	melting point
c1ccc(-c2ccc(-c3nnc(-c4ccco4)n3-c3ccccc3)cc2)cc1 [Compound 2, 3-(biphenyl-4-yl)-5-(furan-2-yl)-4-phenyl-4H-1,2,4-triazole, reference compound]	4600 nM	–
CCc1nnc(-c2ccc(-c3ccccc3)cc2)n1-c1ccccc1Oc1cccnc1 [Example 279]	4600 nM	–
CN(CCCSc1nnc(-c2ccc(-c3ccccc3)cc2)n1-c1ccccc1F)CC(=O)O [Example 157]	1500 nM	–
CC(C)c1nnc(-c2cnc(-c3ccccc3)c(Cl)c2)n1-c1c(F)cccc1F [Example 112]	1000 nM	–
COc1ccccc1-n1c(C)nnc1-c1ccc(-c2ccccc2)cc1 [Compound 1, 3-(biphenyl-4-yl)-4-(2-methoxyphenyl)-5-methyl-4H-1,2,4-triazole, reference compound]	1000 nM	–
CCc1nnc(-c2ccc(-c3ccccc3)cc2)n1-c1ccccc1OC [Compound 3, 3-(biphenyl-4-yl)-5-ethyl-4-(2-methoxyphenyl)-4H-1,2,4-triazole, reference compound]	350 nM	–
COCCN(C)c1nnc(-c2ccc(-c3ccccc3)nc2)n1-c1ccccc1C#N [Example 8, 2-{3-[N-(2-Methoxyethyl)-N-methylamino]-5-(6-phenylpyridin-3-yl)-4H-1,2,4-triazol-4-yl}benzonitrile]	250 nM	–
CSc1nnc(-c2ccc(-c3ccccc3)cc2)n1-c1ccccc1F [Example 12, 3-Biphenyl-4-yl-4-(2-fluorophenyl)-5-methylsulfanyl-4H-1,2,4-triazole]	–	199 to 200 °C
CC(C)c1nnc(-c2ccc(-c3ccccc3)nc2)n1-c1c(F)cccc1F [Example 1, 5-[4-(2,6-Difluorophenyl)-5-isopropyl-4H-triazol-3-yl]-2-phenylpyridine]	140 nM	–
COCCN(C)c1nnc(-c2ccc(-c3ccccc3)nc2)n1-c1cccc2nonc12 [Example 9, 4-(2,1,3-Benzooxadiazol-4-yl)-N-(2-methoxyethyl)-N-methyl-5-(6-phenylpyridin-3-yl)-4H-1,2,4-triazol-3-ylamine]	330 nM	–
Fc1ccccc1-n1c(CN2CCc3sccc3C2)nnc1-c1ccc(-c2ccccc2)cc1 [Example 202]	1600 nM	–
CC(C)c1nnc(-c2ccc(-c3ccccc3)nc2)n1-c1cccc2nonc12 [Example 2, 4-[3-Isopropyl 5-(6-phenylpyridin-3-yl)-4H-1,2,4-triazol-4-yl]-2,1,3-benzooxadiazole]	100 nM	–
CN(CC1CCCO1)c1nnc(-c2ccc(-c3ccccc3)cc2)n1-c1ccccc1F (stereo not shown) [Example 236]	940 nM	–
Cc1nnc(-c2ccc(-c3ccccc3)cc2)n1-c1ccccc1[N+](=O)[O-] [Example 256]	86 nM	–
Cc1nnc(-c2ccc(-c3cccs3)cc2)n1-c1ccccc1F [Example 10, 4-(2-Fluorophenyl)-3-methyl-5-(4-thiophen-2-ylphenyl)-4H-1,2,4-triazole]	200 nM	–
COCCCc1nnc(-c2ccc(-c3ccccc3)nc2)n1-c1cccc(C#N)c1C [Example 5, 3-[3-(3-Methoxypropyl)-5-(6-phenylpyridin-3-yl)-4H-1,2,4-triazol-4-yl]-2-methylbenzonitrile]	410 nM	–

From US7034047B2, “Triazole derivative” (Astellas Pharma, Inc., priority 2000, dated 2006)
